Biological target: T1, SLC26A2 (Homo sapiens, UniProt P50443)
T1 construct: full length, N-terminal His-tag and thrombin site (tag digested with thrombin for cryo-EM); Expi293F, BacMam; LMNG; homodimer; model covers residues 52-724
T1 sequence (P50443 1-739): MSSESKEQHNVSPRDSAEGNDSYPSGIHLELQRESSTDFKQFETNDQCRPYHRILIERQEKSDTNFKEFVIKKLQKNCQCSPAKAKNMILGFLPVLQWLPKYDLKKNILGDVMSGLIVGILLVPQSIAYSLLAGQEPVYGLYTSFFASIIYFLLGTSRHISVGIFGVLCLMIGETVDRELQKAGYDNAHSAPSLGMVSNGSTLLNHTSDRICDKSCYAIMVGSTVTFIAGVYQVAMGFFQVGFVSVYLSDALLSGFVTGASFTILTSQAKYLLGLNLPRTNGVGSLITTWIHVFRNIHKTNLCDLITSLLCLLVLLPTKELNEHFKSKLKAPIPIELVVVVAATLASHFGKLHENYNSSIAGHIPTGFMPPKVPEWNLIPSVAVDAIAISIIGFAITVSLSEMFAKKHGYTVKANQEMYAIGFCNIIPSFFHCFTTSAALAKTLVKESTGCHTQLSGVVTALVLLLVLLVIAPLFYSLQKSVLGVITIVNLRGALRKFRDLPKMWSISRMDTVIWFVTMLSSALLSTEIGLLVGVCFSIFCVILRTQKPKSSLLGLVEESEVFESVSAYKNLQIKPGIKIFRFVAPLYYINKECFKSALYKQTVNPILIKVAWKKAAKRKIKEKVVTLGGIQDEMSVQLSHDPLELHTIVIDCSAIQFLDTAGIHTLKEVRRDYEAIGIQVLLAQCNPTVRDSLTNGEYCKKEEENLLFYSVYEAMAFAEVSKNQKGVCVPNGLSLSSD
Experiment: cryo-EM structure of the complex
Type: binding
Conditions: pH 7.5, LMNG

| Structure (SMILES) | cryo-EM structure of the complex (50 mM K2C2O4, no NaCl, weak density outside the canonical pocket, between TM5 and TM12) | cryo-EM structure of the complex (150 mM NaCl, canonical TM3/TM10 pocket, inward-facing) |
| --- | --- | --- |
| O=C(O)C(=O)O [C2O4^2−] | weak densities outside the pocket |  |
| Cl [Cl^−] |  | we identified a distinct density corresponding to the Cl^- ion in this cleft |

From article PMC11059360 (Nature Communications, 2024)
